Data from patent US20080187605A1, “PREVENTING PATHOLOGICAL NERVE CELL SUICIDE (NEUROAPOPTOSIS) IN IMMATURE NERVOUS SYSTEMS” (priority 2007, published 2008).
“Also recorded” adds a separate entry of the source. Read-outs that look alike come from different tables or passages of the source.

Columns and labels:
infant mouse brain [1] = conditions: 6 hrs; for number of AC3-positive profiles, ethanol by itself: ethanol 250 mg/g, mean across 5 brain regions, vs saline
Experimental: The mean number of AC3-positive profiles per mm^3 across all 5 brain regions was calculated for each treatment condition.

ERK-1 = conditions: infant mice; within less than 30 minutes after ethanol
ERK-2 = conditions: infant mice; within less than 30 minutes after ethanol
AKT = conditions: infant mice; within 30 minutes after ethanol
[2] = test system: caudate/putamen of infant mouse brain; experiment: Xenon and isoflurane neuroapoptosis, activated caspase-3 stereology
Experimental: Seven-day-old C57BL/6 mice were exposed to one of four conditions: air (control); 0.75% isoflurane; 70% xenon or 0.75% isoflurane+70% xenon (n≧9 per group) for 4 hours. All pups were euthanized 2 hours later for histopathological evaluation of the brains, using activated caspase-3 immunohistochemical staining to detect apoptotic neurons. Quantitative assessment of the number of apoptotic neurons in caudate/putamen under each condition was performed by unbiased stereology.
The results are depicted graphically in FIG. 7. In this graph, the number of apoptotic neurons under the control condition is given as 100% and the values for the experimental conditions are given as a percentage of the control.

infant mouse brain [3] = conditions: for number of AC3-positive profiles, ketamine by itself: five day old mice, ketamine 40 mg/kg, caudate nucleus and cerebral cortex, vs saline
Experimental: Five day old infant mice were treated either with saline or ketamine (40 mg/kg), or lithium carbonate (6 Meq/kg), or ketamine (40 mg/kg) plus lithium (6 Meq/kg). The animals were euthanized 6 hrs after initiation of drug exposure and the neuroapoptosis response in 2 different brain regions (caudate nucleus, cerebral cortex) was evaluated by stereological counting of neuronal profiles showing positive immunohistochemical staining for activated caspase 3 (AC3). The mean number of AC3-positive profiles per mm^3 across these 2 brain regions was calculated for each treatment condition.

infant mouse brain [4] = conditions: 6 hrs
Experimental: The animals were euthanized 6 hrs after initiation of drug exposure and the neuroapoptosis response in 2 different brain regions (caudate nucleus, cerebral cortex) was evaluated by stereological counting of neuronal profiles showing positive immunohistochemical staining for activated caspase 3 (AC3). The mean number of AC3-positive profiles per mm^3 across these 2 brain regions was calculated for each treatment condition.

[5] = test system: infant mouse brain (RSC/S and thalamus); conditions: infant mice; single dose of lithium carbonate before brain injury or up to 4 hours after injury
Source text: The method used herein for creating a consistent and reproducible head injury, in infant rats and mice, uses an electromagnetic impact device with a moving coil actuator, mounted on the arm of a stereotaxic holder. The actuator is positioned over the skull of an anesthetized animal, and has a blunt tip aimed at a specific location and angle on the skull. The actuator is driven electromagnetically, and impacts the skull at a computer-controlled speed, delivering a precise concussive force to a targeted zone on the skull.
As described in reports such as Bayly et al 2006, this type of concussive force can be applied to a single side of the head, creating nerve cell death by two different mechanisms. Brain cells directly beneath the skull at the site of impact die by an excitotoxic mechanism, which is confined to the local impact zone, and which leads to end-stage cell death within 4 hours. […]
In these tests, apoptotic neurons were detected by immunohistochemical staining of activated caspase-3 proteins. The quantitative counts were performed in RSC/S and thalamus tissues taken from both (i) the ipsilateral side of the brain, which was damaged, and (ii) the contralateral side of the brain, which was not damaged. […]

[6] = test system: caudate nucleus of infant mouse brain; experiment: Pilocarpine pretreatment against isoflurane- or midazolam-induced neuroapoptosis, activated caspase 3 IHC counts
Source text: Agents that suppress neuronal activity, including GABAergic anesthetic agents such as midazolam and isoflurane, trigger neuroapoptosis in the infant mouse brain. If suppression of neuronal activity is a sufficient cause of the neuroapoptosis response, it is possible that agents that increase neuronal activity, such as the muscarinic cholinergic agonist, pilocarpine, might counteract this response. […] Control littermates received saline instead of pilocarpine, then were exposed to the same midazolam or isoflurane treatments. The animals were euthanized 6 hrs after initiation of anesthetic drug exposure and the neuroapoptosis response in the caudate nucleus was evaluated by stereological counting of neuronal profiles showing positive IHC staining for activated caspase 3.

7 day old rat brain = conditions: xenon administered 4 hours ahead as preconditioning stimulus; cited from earlier work

CCO [ethanol]
number of AC3-positive profiles, ethanol by itself (infant mouse brain [1]; five day old mice): strong neuroapoptotic response
number of AC3-positive profiles, ethanol by itself (infant mouse brain [1]; five day old mice, listed as Ethanol): marked increase
activated isoform of ERK-1 (ERK-1): rapid decrease
activated isoform of ERK-2 (ERK-2): rapid decrease
activated isoform of AKT (AKT): marked suppression

FC(F)OC(Cl)C(F)(F)F (stereo not shown) [isoflurane]
neuroapoptosis in the caudate/putamen, drug alone compared to controls ([2]; mouse, in vivo): significant increase

CNC1(c2ccccc2Cl)CCCCC1=O (stereo not shown) [ketamine]
number of AC3-positive profiles, ketamine by itself (infant mouse brain [3]; 6 hrs): severe and pathological neuroapoptosis
number of AC3-positive profiles, ketamine by itself (infant mouse brain [3]; 6 hrs, listed as Ketamine): marked increase

O=C([O-])[O-].[Li+].[Li+] [lithium, lithium carbonate]
protection against ketamine-induced neuroapoptosis (infant mouse brain [3]; lithium 6 Meq/kg): total protection; also recorded: potently prevent
apoptosis rate, lithium plus ketamine (infant mouse brain [3]; lithium 6 Meq/kg plus ketamine 40 mg/kg, 6 hrs): down to the same level as for lithium alone
number of AC3-positive profiles, lithium by itself (spontaneous neuroapoptosis) (infant mouse brain [3]; lithium carbonate 6 Meq/kg, 6 hrs, ketamine experiment, vs saline controls): marked reduction
apoptosis rate, lithium plus propofol (infant mouse brain [4]; lithium 6 Meq/kg plus propofol 50 mg/kg): down to a level lower than the saline control level
number of AC3-positive profiles, lithium by itself (spontaneous neuroapoptosis) (infant mouse brain [4]; lithium carbonate 6 Meq/kg, propofol experiment, vs saline controls): marked reduction
apoptotic neurodegeneration after traumatic brain injury [5]: prevented almost all
number of AC3-positive profiles, lithium by itself (spontaneous neuroapoptosis) (infant mouse brain [1]; five day old mice, lithium carbonate 3 or 6 Meq/kg (equally strong), vs saline controls): marked reduction
apoptosis rate, lithium plus ethanol (infant mouse brain [1]; lithium 3 Meq/kg plus ethanol 250 mg/g): down to the same rate as in saline controls
apoptosis rate, lithium plus ethanol (infant mouse brain [1]; lithium 6 Meq/kg (higher dose) plus ethanol 250 mg/g): down to lower than the saline control level

Cc1ncc2n1-c1ccc(Cl)cc1C(c1ccccc1F)=NC2 [midazolam]
apoptotic response in the caudate nucleus, anesthetic alone ([6]; infant mice, isoflurane 0.75% for 4 hrs or midazolam 9 mg/kg): induced

CC[C@@H]1C(=O)OC[C@@H]1Cc1cncn1C [pilocarpine]
neuroapoptotic response to isoflurane in the caudate nucleus ([6]; P5 mice, pilocarpine 20 mg/kg 2 hrs before isoflurane 0.75% for 4 hrs, euthanized 6 hrs after start of anesthetic, vs saline pretreatment): significantly reduced; also recorded: markedly reduces
neuroapoptotic response to midazolam in the caudate nucleus ([6]; P5 mice, pilocarpine 20 mg/kg 2 hrs before midazolam 9 mg/kg, euthanized 6 hrs after start of anesthetic, vs saline pretreatment): significantly reduced; also recorded: markedly reduces
degeneration of caudate neurons caused by a GABA anesthetic drug ([6]; infant mice, pilocarpine given prior to GABA anesthetic drug): completely prevented, or greatly reduced
protective effect depending on timing of pilocarpine ([6]; pilocarpine given at the same time as the anesthetic (protective if 2 or more hrs prior)): not if given at the same time

[Xe] [xenon]
apoptotic response of xenon together with isoflurane, relative to xenon alone ([2]; 0.75% isoflurane+70% xenon for 4 hours): only moderately higher
neurotoxic reaction of xenon plus isoflurane, greater than control ([2]; 0.75% isoflurane+70% xenon for 4 hours, control (air) given as 100%): about 350%
protection against isoflurane-induced neuroapoptosis ([2]; 70% xenon combined with 0.75% isoflurane): markedly reduces; also recorded: strongly protects; also recorded: markedly protects
degree of neuroapoptotic response, drug alone ([2]; 70% xenon or 0.75% isoflurane alone for 4 hours): relatively weak neuroapoptogenic potential; also recorded: mild degree; also recorded: mild neuroapoptotic response
neuroapoptosis in the caudate/putamen, drug alone compared to controls ([2]; seven-day-old mice, 70% xenon or 0.75% isoflurane for 4 hours, euthanized 2 hours later, vs air): significant increase
hypoxic and/or ischemic neurodegeneration (7 day old rat brain): protect
